Experimental data reported in PMC9456400 (International Journal of Molecular Sciences, 2022).

Tests used:
[1] = biological target: recombinant human CYP3A4 (Homo sapiens, UniProt P08684); assay: Vivid CYP450 Red screening assay (BOMR substrate, baculosomes)
Experimental: The Vivid® BOMR substrate is a blocked dye that yields a minimal fluorescence signal until metabolized by CYP3A4 into products that are highly fluorescent in aqueous solutions (Figure 5, left panel).
The stringent validation process ensures the highest quality data possible for the 10-point titration, which was performed in duplicate (n = 3). An additional two control wells for each compound concentration tested are conducted to detect autofluorescent compound interference.

[2] = system: Huh-7 cells; assay: Colorimetric enzymatic quantification of cholesteryl esters and triglycerides; assay type: cell-based, human; details: lorlatinib-treated (1 μmol/L) Huh-7 cells, silibinin 100 μmol/L, 48 h
[3] = system: Huh-7 cells; assay: Toxicity of the combination in long-term confluent Huh-7 cells; assay type: cell-based, human; details: silibinin as high as 100 μmol/L, Huh-7 growing confluent for more than 1 month
Description: Our multi-faceted approach involving computational modeling, neural network-based prediction models to classify CYP inhibition, and in vitro validation using recombinant human CYP3A4, confirms and further extends the notion that exposure to standard doses of silibinin-containing milk thistle preparations leading to relatively low peak systemic concentrations (1–10 μmol/L) are expected to be accompanied by low-risk for an inhibitory interaction of the first-pass clearance of lorlatinib at the hepatic level.

[4] = standard doses of silibinin-containing milk thistle preparations ref 57; cited from earlier work
[5] = system: Huh-7 cells; assay: UHPLC-ESI-QTOF-MS/MS lipidomics; assay type: cell-based, human
Description: We then questioned whether lorlatinib used at concentrations efficacious against ALK-rearranged lung cancer cells but non-toxic to ALK-negative cells could promote substantial lipidome changes in Huh-7 cells (Figure 1B; Table 1). Accordingly, […], and the lipidome was characterized in a semi-targeted approach using a UHPLC-ESI-QTOF-MS/MS method, in which we matched mass spectra with commercial standards (SPLAH mix), databases such as METLIN-PCDL and Lipid MAPS (accessed on 1 July 2022), as well as corroboration of tentative lipid species upon obtaining their MS/MS spectrum. Representative chromatograms of lipidomic analyses in Huh-7 cells can be found in Figure S1.
Lipid extraction, preparation of external calibration curves, and quality control approaches were carried out as described. Samples (2 μL) were injected directly into a 1290 Infinity UHPLC system coupled with a dual Agilent jet stream ESI source to a 6550 QTOF-MS instrument (Agilent Technologies, Santa Clara, CA, USA). UHPLC-ESI-QTOF-MS conditions, data analysis and indirect quantification of selected lipid species using MassHunter Qualitative Analysis B.07.00 software (Agilent Technologies), and corroboration of the tentative characterization of compound match entities using the Lipid Maps database (www.lipidmaps.org, accessed on 1 July 2022) and targeted MS/MS acquisition on LC-QTOF-MS instrument, have been previously described in detail.
Differentially expressed lipid species from untargeted lipidomic data were analyzed by generating volcano plots indicating statistical significance versus magnitude of fold-change for each lipid species (cutoff of Benjamini–Hochberg corrected p-value < 0.05 and log2 fold-change > 1 or […]).

[6] = system: HepG2 cells; assay: Oil Red O staining of neutral lipids; assay type: cell-based, human; details: HepG2, acute exposure 48 h; silibinin 100 μmol/L as co-treatment with lorlatinib
Experimental: To confirm these findings, we employed an independent in vitro model of fatty liver disease involving non-tumorigenic HepG2 cells, which are routinely employed as an inducible fatty liver cell model to screen for therapeutic drugs to eliminate lipid accumulation.
(§1) For assessment of neutral lipid formation, cells were washed in PBS, fixed with 4% paraformaldehyde for 30 min, washed in distilled water, and then briefly incubated in 60% isopropanol. Following equilibration, cells were stained with a working solution (60%) of Oil Red O for 20 min. An Oil Red O stock solution was prepared by dissolving 0.35% w/v Oil Red O in 100 mL 100% isopropanol. HCS LipidTOX™ Green Neutral Lipid Stain (Invitrogen; Cat. #H34475) was employed as a second staining cocktail for visualization of intracellular neutral lipids. Formaldehyde fixation and preparing/using the labeling solution was carried out as per the manufacturer’s instructions.

[7] = system: Huh-7 cells; assay: Oil Red O and LipidTOX staining of neutral lipids; assay type: cell-based, human; details: Huh-7, chronic exposure 7 days; silibinin 10 μmol/L as co-treatment with lorlatinib
Experimental: We first employed a conventional index of fatty liver disease––the intracellular accumulation of neutral lipids (steatosis)––to confirm the ability of lorlatinib to trigger hypertriglyceridemia and hypercholesteremia.
as §1

Sequence of recombinant human CYP3A4 (P08684 whole entry): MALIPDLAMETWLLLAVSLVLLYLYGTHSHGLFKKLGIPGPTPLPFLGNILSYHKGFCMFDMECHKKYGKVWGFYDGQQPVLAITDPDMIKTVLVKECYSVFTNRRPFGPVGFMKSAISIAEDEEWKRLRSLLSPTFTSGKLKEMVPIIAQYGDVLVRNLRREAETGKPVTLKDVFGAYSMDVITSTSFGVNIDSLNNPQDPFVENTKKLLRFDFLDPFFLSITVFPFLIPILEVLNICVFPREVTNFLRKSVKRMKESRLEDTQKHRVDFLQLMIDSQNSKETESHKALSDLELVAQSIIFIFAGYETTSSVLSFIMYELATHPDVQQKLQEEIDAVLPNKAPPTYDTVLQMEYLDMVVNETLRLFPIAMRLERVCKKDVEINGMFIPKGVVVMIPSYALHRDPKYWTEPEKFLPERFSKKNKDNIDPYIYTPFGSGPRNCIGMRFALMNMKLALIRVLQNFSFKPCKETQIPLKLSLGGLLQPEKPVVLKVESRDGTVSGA

SMILES	IC50 [1]	Accumulation of cholesterol esters and triglycerides [2]	Toxic effects of the combination with lorlatinib [3]	Peak systemic concentrations [4]	Change of lipid species, single agent ([5]; Huh-7, 48 h, lorlatinib 1 μmol/L, silibinin 100 μmol/L)	Effect of co-treatment on lorlatinib-induced rise of lipid species ([5]; Huh-7, silibinin 100 μmol/L with lorlatinib 1 μmol/L, 48 h)	Accumulation of neutral lipids (lipid droplets) [6]	Accumulation of neutral lipids (lipid droplets) [7]
CC(C)c1nc(N(C)S(C)(=O)=O)nc(-c2ccc(F)cc2)c1/C=C/[C@@H](O)C[C@@H](O)CC(=O)O [rosuvastatin]	> 300 µM							
COc1cc(C2Oc3cc([C@H]4Oc5cc(O)cc(O)c5C(=O)[C@@H]4O)ccc3OC2CO)ccc1O (some centres unmarked) [silibinin]		inhibit the accumulation of cholesterol esters and triglycerides	failed to observed significant toxic effects	1 to 10 µmol/L	significantly lowered the baseline abundance of many ChoE species	completely blunted the significant lorlatinib-induced rise in numerous ChoE and TG/DG species	markedly fewer and smaller neutral lipid depots	notably decreased the quantity and size of the lipid droplets
